Laboratory results reported in ChEMBL document CHEMBL3877248, “Further investigation of inhibitors of MRSA pyruvate kinase: Towards the conception of novel antimicrobial agents” (Eur J Med Chem, 2017).
≈ marks a conversion by molar mass, not a printed value.

Assays:
[1] = biological target: T1, Pyruvate kinase (Staphylococcus aureus (strain MRSA252)) (UniProt Q6GG09); experiment: Inhibition of recombinant N-terminal His-tagged methicillin-resistant Staphylococcus aureus MRSA252 pyruvate kinase expressed in Escherichia coli BL21(DE3) at 1 uM using PEP as substrate measured after 5 mins by LDH-coupled assay relative to control; details: Staphylococcus aureus subsp. aureus MRSA252
T1 sequence (whole entry): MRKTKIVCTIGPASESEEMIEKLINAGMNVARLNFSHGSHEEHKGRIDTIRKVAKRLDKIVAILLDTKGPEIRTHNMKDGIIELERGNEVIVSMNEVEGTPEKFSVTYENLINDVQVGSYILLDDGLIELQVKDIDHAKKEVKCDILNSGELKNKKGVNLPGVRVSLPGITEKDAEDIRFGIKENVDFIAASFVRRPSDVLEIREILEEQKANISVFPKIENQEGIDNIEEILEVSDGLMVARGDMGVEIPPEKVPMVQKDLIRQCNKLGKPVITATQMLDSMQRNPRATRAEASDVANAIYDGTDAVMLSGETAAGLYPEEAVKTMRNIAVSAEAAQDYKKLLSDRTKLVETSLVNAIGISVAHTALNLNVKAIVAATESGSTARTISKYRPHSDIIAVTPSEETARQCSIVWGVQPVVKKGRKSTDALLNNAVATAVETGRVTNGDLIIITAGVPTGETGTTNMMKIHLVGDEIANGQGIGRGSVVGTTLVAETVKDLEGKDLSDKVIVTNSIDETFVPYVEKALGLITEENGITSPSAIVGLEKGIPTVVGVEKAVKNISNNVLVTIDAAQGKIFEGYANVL

Staphylococcus aureus [2] = experiment: Antibacterial activity against Staphylococcus aureus ATCC 29213 measured after 24 hrs by two-fold microbroth dilution method; format: functional
Pyruvate kinase = biological target: T2, Pyruvate kinase (Staphylococcus aureus (strain MRSA252), UniProt Q6GG09); experiment: Inhibition of recombinant N-terminal His-tagged methicillin-resistant Staphylococcus aureus MRSA252 pyruvate kinase expressed in Escherichia coli BL21(DE3) using PEP as substrate measured after 5 mins by LDH-coupled assay; parameters: species or system Staphylococcus aureus subsp. aureus MRSA252
T2 sequence (Q6GG09 whole entry): T1 sequence (whole entry)

[3] = biological target: T1, Pyruvate kinase (Staphylococcus aureus (strain MRSA252)); experiment: Inhibition of recombinant N-terminal His-tagged methicillin-resistant Staphylococcus aureus MRSA252 pyruvate kinase expressed in Escherichia coli BL21(DE3) at 0.1 uM using PEP as substrate measured after 5 mins by LDH-coupled assay relative to control; details: Staphylococcus aureus subsp. aureus MRSA252
[4] = biological target: T1, Pyruvate kinase (Staphylococcus aureus (strain MRSA252)); experiment: Inhibition of recombinant N-terminal His-tagged methicillin-resistant Staphylococcus aureus MRSA252 pyruvate kinase expressed in Escherichia coli BL21(DE3) at 10 uM using PEP as substrate measured after 5 mins by LDH-coupled assay relative to control; details: Staphylococcus aureus subsp. aureus MRSA252
Staphylococcus aureus [5] = experiment: Antibacterial activity against methicillin-resistant Staphylococcus aureus MRSA252 by two-fold microbroth dilution method; format: functional
[6] = Selectivity ratio for inhibition of recombinant N-terminal His-tagged methicillin-resistant Staphylococcus aureus MRSA252 pyruvate kinase over inhibition of human recombinant N-terminal His-tagged pyruvate kinase M1
[7] = Selectivity ratio for inhibition of recombinant N-terminal His-tagged methicillin-resistant Staphylococcus aureus MRSA252 pyruvate kinase over inhibition of human recombinant N-terminal His-tagged pyruvate kinase M2
[8] = Selectivity ratio for inhibition of recombinant N-terminal His-tagged methicillin-resistant Staphylococcus aureus MRSA252 pyruvate kinase over inhibition of human recombinant N-terminal His-tagged pyruvate kinase-R
[9] = Selectivity ratio for inhibition of recombinant N-terminal His-tagged methicillin-resistant Staphylococcus aureus MRSA252 pyruvate kinase over inhibition of human recombinant N-terminal His-tagged pyruvate kinase-L

Structure (SMILES): COc1c(Br)cccc1C(=O)Nc1nc2ccc(Br)cc2s1
- inhibition [1]: 22%
- MIC>98 (Staphylococcus aureus [2]): >64 µg/mL

Structure (SMILES): O=C(c1ncc(-c2c[nH]c3cc(Br)ccc23)[nH]1)c1c[nH]c2ccccc12 [BROMODEOXYTOPSENTIN]
- IC50 (Pyruvate kinase): 60 nM

Structure (SMILES): COc1ccc(Br)cc1-c1cccc(-c2cc3ccccc3[nH]2)n1
- inhibition [1]: 6%
- MIC>98 (Staphylococcus aureus [2]): >64 µg/mL

Structure (SMILES): Brc1ccc(-c2c[nH]c3ccc(Br)cc23)cc1
- MIC>98 (Staphylococcus aureus [2]): 1 µg/mL (≈ 2.85 µM)
- inhibition [3]: 20%

Structure (SMILES): O=C(Nc1cc(Br)ccc1O)c1cc2ccc(Br)cc2[nH]1
- IC50 (Pyruvate kinase): 12 nM
- MIC>98 (Staphylococcus aureus [2]): >64 µg/mL

Structure (SMILES): O=C(/C=C/c1c[nH]c2ccc(Br)cc12)c1cc2ccccc2[nH]1
- IC50 (Pyruvate kinase): 1780 nM
- MIC>98 (Staphylococcus aureus [2]): >64 µg/mL

Structure (SMILES): O=C(/C=C/c1ccc(Br)cc1O)c1cc2ccc(Br)cc2[nH]1
- IC50 (Pyruvate kinase): 14 nM
- MIC>98 (Staphylococcus aureus [2]): >64 µg/mL

Structure (SMILES): O=C(/C=C/c1cc2ccccc2[nH]1)c1cc(Br)ccc1O
- inhibition [1]: 10%

Structure (SMILES): O=C(/C=C/c1cc2ccccc2[nH]1)c1ccc(Br)cc1O
- IC50 (Pyruvate kinase): 553 nM
- MIC>98 (Staphylococcus aureus [2]): >64 µg/mL

Structure (SMILES): Brc1ccc(-c2c[nH]c3cc(Br)ccc23)cc1
- MIC>98 (Staphylococcus aureus [2]): 2 µg/mL (≈ 5.7 µM)

Structure (SMILES): O=C(/C=C/c1cc2ccc(Br)cc2[nH]1)c1cc2cc(Br)ccc2[nH]1
- inhibition [1]: 21%
- MIC>98 (Staphylococcus aureus [2]): >64 µg/mL

Structure (SMILES): O=C(Nc1ccc(Br)cc1)c1cc2ccc(Br)cc2[nH]1
- IC50 (Pyruvate kinase): 10 nM
- MIC>98 (Staphylococcus aureus [2]): >64 µg/mL

Structure (SMILES): O=C(/C=C/c1cc2ccc(Br)cc2[nH]1)c1ccc(Br)cc1O
- IC50 (Pyruvate kinase): 132 nM
- MIC>98 (Staphylococcus aureus [2]): >64 µg/mL

Structure (SMILES): O=C(Nc1nc2ccc(Br)cc2s1)c1cc(Br)cc(Br)c1O
- IC50 (Pyruvate kinase): 4 nM
- MIC>98 (Staphylococcus aureus [2]): 1 µg/mL (≈ 1.97 µM)

Structure (SMILES): O=C(/C=C/c1cc2ccccc2[nH]1)c1cccc(Br)c1O
- inhibition [4]: 2%

Structure (SMILES): O=C(Nc1nc2cc(Br)ccc2[nH]1)c1cc2ccc(Br)cc2[nH]1
- IC50 (Pyruvate kinase): 2 nM
- MIC>98 (Staphylococcus aureus [2]): >64 µg/mL

Structure (SMILES): COc1ccc(Br)cc1C(=O)Nc1nc2ccc(Br)cc2s1
- IC50 (Pyruvate kinase): 8 nM
- MIC>98 (Staphylococcus aureus [2]): >64 µg/mL

Structure (SMILES): O=C(/C=C/c1cccc(Br)c1O)c1cc2ccc(Br)cc2[nH]1
- IC50 (Pyruvate kinase): 403 nM
- MIC>98 (Staphylococcus aureus [2]): >64 µg/mL

Structure (SMILES): O=C(/C=C/c1cc2ccc(Br)cc2[nH]1)c1cccc(Br)c1O
- inhibition [1]: 41%
- MIC>98 (Staphylococcus aureus [2]): >64 µg/mL

Structure (SMILES): O=C1NC[C@@H](c2c[nH]c3cc(Br)ccc23)N[C@H]1c1c[nH]c2cc(Br)ccc12 [CIS-3,4-DIHYDROHAMACANTHIN B]
- MIC (Staphylococcus aureus [5]): 12.5 µg/mL (≈ 25.6 µM)
- Selectivity ratio [6]: 166 to 600
- Selectivity ratio [7]: 166 to 600
- Selectivity ratio [8]: 166 to 600
- Selectivity ratio [9]: 166 to 600

Structure (SMILES): O=C(/C=C/c1c[nH]c2ccc(Br)cc12)c1c[nH]c2ccccc12
- inhibition [1]: 1%

Structure (SMILES): O=C(/C=C/c1cc2ccc(Br)cc2[nH]1)c1cc2ccccc2[nH]1
- inhibition [1]: 38%
- MIC>98 (Staphylococcus aureus [2]): >64 µg/mL

Structure (SMILES): O=C(Nc1nc2ccc(Br)cc2s1)c1cc2cc(Br)ccc2[nH]1
- IC50 (Pyruvate kinase): 23 nM
- MIC>98 (Staphylococcus aureus [2]): >64 µg/mL

Structure (SMILES): O=C(Nc1nc2cc(Br)ccc2[nH]1)c1cc(Br)ccc1O
- IC50 (Pyruvate kinase): 11 nM
- MIC>98 (Staphylococcus aureus [2]): 4 µg/mL (≈ 9.73 µM)

Structure (SMILES): O=C(Nc1ccc(Br)cc1)c1cc2ccc(Br)cc2s1
- MIC>98 (Staphylococcus aureus [2]): >64 µg/mL
- inhibition [3]: 43%

Structure (SMILES): O=C(Nc1nc2ccc(Br)cc2s1)c1cccc(Cl)c1O
- MIC>98 (Staphylococcus aureus [2]): 4 µg/mL (≈ 10.4 µM)
- inhibition [3]: 43%

Structure (SMILES): O=C(Nc1cccc(Br)c1O)c1cc2ccc(Br)cc2[nH]1
- MIC>98 (Staphylococcus aureus [2]): >64 µg/mL

Structure (SMILES): O=C(/C=C/c1cc2ccc(Br)cc2[nH]1)c1cc2ccc(Br)cc2[nH]1
- inhibition [1]: 6%

Structure (SMILES): COc1ccc(Br)cc1/C=C1\CCc2c([nH]c3ccccc23)C1=O
- inhibition [1]: 22%

Structure (SMILES): O=C(Nc1nc2ccc(Br)cc2s1)c1ccc(Br)cc1O
- MIC>98 (Staphylococcus aureus [2]): >64 µg/mL

Structure (SMILES): O=C(Nc1nc2cc(Br)ccc2s1)c1cc2cc(Br)ccc2[nH]1
- IC50 (Pyruvate kinase): 8 nM
- MIC>98 (Staphylococcus aureus [2]): >64 µg/mL

Structure (SMILES): O=C(/C=C/c1cc(Br)ccc1O)c1cc2ccccc2[nH]1
- IC50 (Pyruvate kinase): 355 nM
- MIC>98 (Staphylococcus aureus [2]): 2 µg/mL (≈ 5.84 µM)

Structure (SMILES): O=C(/C=C/c1c[nH]c2cc(Br)ccc12)c1c[nH]c2ccccc12
- inhibition [1]: 28%

Structure (SMILES): CN(C(=O)c1cc(Br)ccc1O)c1nc2ccc(Br)cc2s1
- inhibition [1]: 5%

Structure (SMILES): O=C(Nc1nc2ccc(Br)cc2s1)c1cccc(Br)c1O
- MIC>98 (Staphylococcus aureus [2]): 4 µg/mL (≈ 9.34 µM)

Structure (SMILES): O=C(Nc1nc2ccccc2s1)c1cc(Br)ccc1O
- inhibition [1]: 13%
- MIC>98 (Staphylococcus aureus [2]): >64 µg/mL

Structure (SMILES): Cn1c(C(=O)Nc2nc3ccc(Br)cc3s2)cc2ccccc21
- inhibition [1]: 41%
- MIC>98 (Staphylococcus aureus [2]): >64 µg/mL

Structure (SMILES): Oc1c(Br)cccc1CNc1nc2ccc(Br)cc2s1
- inhibition [1]: 17%

Structure (SMILES): O=C(Nc1nc2ccc(Br)cc2s1)c1ccccc1O
- inhibition [1]: 65%
- MIC>98 (Staphylococcus aureus [2]): >64 µg/mL

Structure (SMILES): O=C(Nc1nc2ccc(Br)cc2s1)c1cc(Br)ccc1O
- MIC>98 (Staphylococcus aureus [2]): >64 µg/mL

Structure (SMILES): O=C(/C=C/c1c[nH]c2cc(Br)ccc12)c1cc2ccccc2[nH]1
- inhibition [1]: 45%

Structure (SMILES): O=C(Nc1ccc(Br)cc1)c1cc2ccccc2[nH]1
- inhibition [1]: 41%
- MIC>98 (Staphylococcus aureus [2]): >64 µg/mL

Structure (SMILES): Brc1ccc(-c2cc3cc(Br)ccc3[nH]2)cc1
- inhibition [1]: 21%

Structure (SMILES): O=C(Nc1nc2ccc(Br)cc2s1)c1cc2ccccc2[nH]1
- MIC>98 (Staphylococcus aureus [2]): >64 µg/mL

Structure (SMILES): O=C(/C=C/c1cc2ccc(Br)cc2[nH]1)c1cc(Br)ccc1O
- inhibition [1]: 15%
- MIC>98 (Staphylococcus aureus [2]): >64 µg/mL

Structure (SMILES): O=C(Nc1nc2cc(Br)ccc2[nH]1)c1cc2cc(Br)ccc2[nH]1
- IC50 (Pyruvate kinase): 3 nM
- MIC>98 (Staphylococcus aureus [2]): >64 µg/mL

Structure (SMILES): Oc1ccc(Br)cc1/C=N/c1nc2ccc(Br)cc2s1
- inhibition [1]: 41%
- MIC>98 (Staphylococcus aureus [2]): 64 µg/mL (≈ 155 µM)

Structure (SMILES): Oc1ccc(Br)cc1-c1nnc(-c2cc3ccccc3[nH]2)o1
- inhibition [1]: 8%
- MIC>98 (Staphylococcus aureus [2]): >64 µg/mL

Structure (SMILES): O=C(Nc1nc2cc(Br)ccc2s1)c1cc2ccccc2[nH]1
- MIC>98 (Staphylococcus aureus [2]): >64 µg/mL

Structure (SMILES): O=C1c2ccc(Br)cc2C(=O)N1c1nc2ccc(Br)cc2s1
- inhibition [1]: 34%
- MIC>98 (Staphylococcus aureus [2]): >64 µg/mL

Structure (SMILES): Oc1ccc(Br)cc1-c1ccnc(-c2cc3ccc(Br)cc3[nH]2)c1
- MIC>98 (Staphylococcus aureus [2]): >64 µg/mL
- inhibition [3]: 41%

Structure (SMILES): O=C(/C=C/c1cc2ccc(Br)cc2[nH]1)c1ccccc1O
- IC50 (Pyruvate kinase): 343 nM
- MIC>98 (Staphylococcus aureus [2]): >64 µg/mL

Structure (SMILES): COc1ccc(Br)cc1/C=C/C(=O)c1cc2ccc(Br)cc2[nH]1
- IC50 (Pyruvate kinase): 8 nM
- MIC>98 (Staphylococcus aureus [2]): >64 µg/mL

Structure (SMILES): O=C(Nc1cc(Br)ccc1O)c1cc2ccccc2[nH]1
- inhibition [1]: 28%

Structure (SMILES): O=C(Nc1nc2cc(Br)ccc2s1)c1cc(Br)ccc1O
- inhibition [1]: 48%
- MIC>98 (Staphylococcus aureus [2]): >64 µg/mL

Structure (SMILES): O=C(/C=C/c1cc2ccccc2[nH]1)c1cc2ccc(Br)cc2[nH]1
- IC50 (Pyruvate kinase): 5 nM
- MIC>98 (Staphylococcus aureus [2]): >64 µg/mL

Structure (SMILES): COc1ccc(Br)cc1-c1nnc(-c2cc3ccccc3[nH]2)o1
- inhibition [1]: 19%
- MIC>98 (Staphylococcus aureus [2]): >64 µg/mL

Structure (SMILES): O=C(/C=C/c1cc(Br)ccc1O)c1cc2ccc(Br)cc2[nH]1
- IC50 (Pyruvate kinase): 24 nM
- MIC>98 (Staphylococcus aureus [2]): 1 µg/mL (≈ 2.37 µM)
